Results from PMC8267472, “The Effect of Cream and Gel Vehicles on the Percutaneous Absorption and Skin Retention of a New Eugenol Derivative With Antioxidant Activity” (Frontiers in Pharmacology, 2021).
Like-named read-outs stand apart in the source and are kept apart here.

Tests used:
[1] = In vitro skin permeation in Franz diffusion cell; type: in vitro ADME, porcine
Description: The skin permeability for vehicles containing eugenol and EDChA were assessed in a Franz diffusion cell consisted of a 2 ml donor chamber and an 8 ml acceptor chamber. The permeation area was 1 cm^2. The acceptor fluid, mixed with a magnetic stirrer, was a PBS (phosphate-buffered saline, pH 7.4) solution that maintained the physiological pH. […] Before starting the test, Franz diffusion cells were allowed to equilibrate at 37°C for 15 min. Porcine skin was used for the study due to its similar permeability properties to human skin. The skin was from a local slaughterhouse. A fresh portion of skin from the abdomen was washed several times with a solution of PBS. Skin with a thickness of 0.5 mm was cut with a dermatome, and then it was wrapped in aluminum foil and frozen at –20°C for a maximum of 3 months. […] Before the study, the skin was thawed at room temperature for about 30 min, and then it was soaked in a PBS solution for 15 min to hydrate it. In the next stage, the skin was mounted in Franz diffusion cells. The integrity of skin was checked 1 h after its installation in the Franz diffusion chamber (SES GmbH Analyze Systeme, Germany). […] To make the measurement, the tips of the probes were immersed in the donor and acceptor chambers filled with the PBS solution.
Preparations (1.000 g) containing one of the test compound (eugenol and EDChA) were placed in the donor chamber. All donor chambers were closed with a plastic stopper to prevent excessive evaporation of the vehicle. […] The samples were analyzed by high-performance liquid chromatography (HPLC).
(§1) The permeation rate was determined based on the amount of permeated compound over a given period (μg/cm^2/h).
(§2) The samples were analyzed by high-performance liquid chromatography (HPLC) with a UV detector (Knauer, Berlin, Germany). […] The flow rate of the mobile phase, consisted of acetonitrile, water, and MeOH (28:64:8, by vol), was 1 ml/min. Twenty microliters of each analyzed sample was injected onto the column.

[2] = DPPH radical reduction by ethanolic solutions of eugenol and EDChA (IC50); type: biochemical; details: ethanolic solution, 10 min incubation, 517 nm; read-out: IC50, concentration reducing 50% of free radicals (DPPH method)
Description: Antioxidative activity of ethanolic solutions of eugenol and its new derivative (EDChA) were determined using spectrophotometric method based on DPPH radical reduction as described elsewhere ([Brand-Williams et al., 1995]; [Makuch et al., 2020]). The absorbance at the wavelength of 517 nm was measured using Spectroquant Pharo 300 (Merck, Germany). The antioxidant activity of eugenol and its ester was measured as follows: to 2,850 µl of DPPH ethanolic solution (absorbance at 517 nm 1.00 ± 0.02) 150 µl of the sample (containing one of the tested compound at a concentration of 1.000 w/w) was added. The concentration of the analyzed sample in DPPH ethanolic solution was 0.050% w/w. The tube was wrapped in aluminum foil, sealed with a stopper and incubated for 10 min at room temperature. Each sample was prepared in triplicate. After incubation, spectrophotometric measurements were carried out at 517 nm. Solvent applied to obtain extracts was used as reference. The results were expressed as radical scavenging activity (RSA) ([Nowak et al., 2019]). For each studied compound calibration curve of RSA vs. concentration (0.006–50.000% w/v) was prepared to calculate IC50, i.e. the concentration of the compound reducing 50% of free radicals. The concentration range of the analyzed samples in DPPH ethanolic solution were 0.0003–2.5000% w/v.

[3] = Skin accumulation (extraction of skin after the permeation experiment); type: in vitro ADME, porcine; details: after 24 h experiment
Description: After completion of permeation experiment, the skin was extracted to estimate the residual amount of tested active ingredients accumulated in it. […] Extraction was carried out as follows: after the experiment was completed, the Franz diffusion chambers were dismantled, while the skin surface was washed three times with an aqueous solution of sodium lauryl sulfate (at a concentration of 0.5% w/w) to rinse of the excess of vehicle containing test compound. A patch (1 cm^2 diffusion surface) was cut from the skin prepared in this way, dried at room temperature, and then weighed and cut into smaller pieces. […] The obtained extracts were then centrifuged at 3,500 rpm for 5 min. The supernatant was analyzed by HPLC to determine the content of active ingredients, while tests on the antioxidant activity of the obtained extracts was evaluated using the DPPH, Folin–Ciocalteau, and ABTS methods.
as §1, §2

[4] = Total polyphenole content by Folin-Ciocalteu method on acceptor fluid and solution after skin extraction
Description: The antioxidant activity of acceptor fluid taken after 24 h of permeation, and solutions obtained after skin extraction performed after the experiment was determined using the DPPH (according to the procedure described above) ([Brand-Williams et al., 1995]; [Makuch et al., 2020]), ABTS ([Makuch et al., 2020]) and Folin–Ciocalteau ([Nowak et al., 2019]; [Makuch et al., 2020]) methods. The ABTS assay is based on the generation of a blue/green ABTS radical, which is applicable to both hydrophilic and lipophilic antioxidant systems; whereas DPPH assay uses a radical dissolved in organic media and is, therefore, applicable to hydrophobic systems ([Molyneux 2004]). To determine the total content of phenolic compounds in the tested samples the method based on the use of the Folin–Ciocalteu reagent in alkaline medium was applied. The reaction is based on the spectrophotometrically recorded color change of the test solution from yellow to blue. Folin–Ciocalteu reagent was diluted tenfold with water in a dark bottle and incubated at room temperature for 60 min. […] The cuvette was sealed with a stopper and incubated for 15 min at room temperature. […]

[5] = shake-flask method; ref Makuch et al., 2020; cited from earlier work
[6] = parameters: method as in Floegel et al., 2011; details: literature value; ref Floegel et al., 2011; read-out: IC50 described in the literature (DPPH); cited from earlier work

Structure (SMILES)	Cumulative mass of substance after 24 h of permeation test ([1]; cream vehicles, 1.000% w/w active, acceptor PBS pH 7.4, 1 cm^2) [µg]	Mass of substance in the acceptor fluid after 24 h of permeation ([1]; gel vehicles, 1.000% w/w active, acceptor PBS pH 7.4, 1 cm^2) [µg]	IC50 [2] [µM]	Skin accumulation of substance ([3]; cream vehicles) [µg/cm^2 skin]	Skin accumulation of substance ([3]; gel vehicles) [µg/cm^2 skin]	Antioxidant activity (Folin-Ciocalteu method) of solution obtained after skin extraction ([4]; cream vehicle) [mmol GA/dm^3]	Cumulative mass of substance after 24 h of permeation test ([1]; pig, 24 h, 1 % w/w, pH 7.4) [µg]	Mass of substance in the acceptor fluid after 24 h of permeation ([1]; pig, 24 h, 1 % w/w, pH 7.4) [µg]	log p [5]	Total polyphenole content (folin-ciocalteu method), solution after skin extraction ([4]; cream vehicles) [mmol GA/dm^3]	IC50 [6] [µM]
C=CCc1ccc(OC(=O)C(Cl)Cl)c(OC)c1 [EDChA, eugenyl dichloroacetate]	19.6 ± 1.8	28.8 ± 2.6	4280	173.9 ± 8.4	255.9 ± 20.1	0.3 ± 0.1	–	–	–	–	–
C=CCc1ccc(O)c(OC)c1 [Eugenol, 4-allyl-2-methoxyphenol]	–	–	6.1	–	–	–	20.5 ± 0.8	31.3 ± 4.3	2.20 ± 0.001	0.2 ± 0.1	50.4
